This test has as its target T1, human LPA1 (Homo sapiens, UniProt Q92633).
T1 construct: expressed in transfected cells; host or cells: CHO-K1
Briefly: In vitro LPA1 calcium flux antagonist assay - Bioduro protocol. Format: cell-based. Particulars: CHO-K1 cells overexpressing human LPA1 and G15a, LPA challenge at EC80. An outline of the steps:
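CHO-K1 cells overexpressing human LPA1 and G15a, serum-starved 4 h, loaded with Fluo-8 AM plus 2.5 mM probenecid in HBSS/20 mM Hepes for 30 min at 37 °C. Compound preincubated 30 min, then LPA challenge at EC80; FLIPR calcium signal, % inhibition relative to DMSO and LPA controls.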
(Calcium assays in cells follow changes in intracellular calcium, usually with a dye or a luminescent sensor.)

[1] abbreviates: calcium mobilization on FLIPR Tetra, read-out: IC50.
[2] abbreviates: Table B3, read-out: Activity (IC50 class).

Where two headings read alike, the source gives them in different places. A value given as a limit tells only on which side of the number the result lay.

T1 sequence (Q92633 whole entry): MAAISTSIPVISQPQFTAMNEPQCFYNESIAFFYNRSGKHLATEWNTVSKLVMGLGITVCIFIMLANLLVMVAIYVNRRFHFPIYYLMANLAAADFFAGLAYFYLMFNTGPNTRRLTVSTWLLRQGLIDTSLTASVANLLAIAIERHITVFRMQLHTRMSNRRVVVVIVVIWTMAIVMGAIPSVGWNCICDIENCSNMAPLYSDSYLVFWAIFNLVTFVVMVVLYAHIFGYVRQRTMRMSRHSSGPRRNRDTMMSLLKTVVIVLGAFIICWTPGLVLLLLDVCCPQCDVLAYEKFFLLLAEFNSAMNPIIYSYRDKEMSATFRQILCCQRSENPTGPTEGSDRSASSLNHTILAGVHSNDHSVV

Consider `COc1cc(-c2ccc(NC3(C(=O)O)C[C@@H](C)O[C@@H](C)C3)cc2COC2CCCC2)c(F)c(OC)c1C` (stereo partly drawn) [Compound 225, (2R,6S)-4-((2-((cyclopentyloxy)methyl)-2′-fluoro-3′,5′-dimethoxy-4′-methyl-[1,1′-biphenyl]-4-yl)amino)-2,6-dimethyltetrahydro-2H-pyran-4-carboxylic acid], for which the IC50 – broadly, the midpoint of a concentration-inhibition curve – under setting [1] came out at 320 nM and the concentration for half-maximal inhibition (IC50) under setting [2] is 100 to 1000 nM.

For `COC(=O)N1CCC(Nc2cc(C)c(-c3cc(OC)cc(OC)c3)c(COC3CCCC3)c2)(C(=O)O)CC1` [Compound 154], the concentration for half-maximal inhibition (IC50) under setting [1] came out at 224 nM and the half-maximal inhibitory concentration (IC50) under setting [2] fell in the range of 100 to 1000 nM.

As to `CCOc1cccc(-c2ccc(NC3(C(=O)O)CCOCC3)cc2CCC2CC2)c1C(F)F` [Compound 296], the 50% inhibitory concentration (IC50) runs as follows: under setting [1], 2.4 nM; under setting [2], less than 100 nM.

In the case of `COc1cc(OC)c(Cl)c(-c2ccc(NC3(C(=O)O)CCOCC3)cc2COC2CCCC2)c1` [Compound 257], the half-inhibitory concentration (IC50) runs as follows: under setting [1], 8.41 nM; under setting [2], less than 100 nM.

On to `COc1cc(-c2ccc(NCCC(=O)O)cc2COCCc2ccccc2)cc(OC)c1C` [Compound 106], for which the IC50 by setting is: under setting [1], 3480 nM; under setting [2], greater than 1000 nM.

Take `O=C(O)C1(Nc2ccc(-c3cccc(OC4CC4)c3C(F)F)c(COC3CC3)c2)CC1` [Compound 325]: the IC50 was 59.6 nM under setting [1] and less than 100 nM under setting [2].

`COC(=O)N1CC(Nc2ccc(-c3cc(OC)c(C)c(OC)c3)c(COC3Cc4ccccc4C3)c2)(C(=O)O)C1` [Compound 129]: the IC50 is 17.2 nM under setting [1] and less than 100 nM under setting [2].

As to `CCOc1c(C)ccc(-c2ccc(NC3(C(=O)O)CCOCC3)cc2COC2CC2)c1C` [Compound 313], the IC50 is 5.93 nM under setting [1] and less than 100 nM under setting [2].

As for `CCCc1cccc(-c2ccc(NC3(C(=O)O)CCOCC3)cc2COC2CCCC2)c1F` [Compound 286], the IC50 under setting [1] was found to be 9.87 nM and the IC50 under setting [2] is less than 100 nM.

Turning to `COc1cc(-c2ccc(NC3(C(=O)O)CCOCC3)cc2COC2CCCC2)c(F)c(OC)c1C(C)O` (centres unmarked) [Compound 299], the 50% inhibitory concentration (IC50) was 38.4 nM under setting [1] and less than 100 nM under setting [2].

With `CCOc1cc(OC)cc(-c2ccc(C3(C(=O)O)CC3)cc2COC2CCCC2)c1F` [Compound 391], the half-maximal inhibitory concentration (IC50) is 471 nM under setting [1] and 100 to 1000 nM under setting [2].

Regarding `CCOc1cc(OC)cc(-c2ccc(NC3(C(=O)O)CCOCC3)cc2COC2CC2)c1F` [Compound 288], the IC50 under setting [1] was found to be 11.9 nM and the IC50 under setting [2] is less than 100 nM.

Turning to `COc1cc(-c2ccc(NC3(C(=O)O)CCOCC3)cc2COC2CCCC2)c(F)c(OC)c1C` [Compound 165], the IC50 is 10.9 nM under setting [1] and less than 100 nM under setting [2].

Turning to `COc1cc(-c2ccc(NC3(C(=O)O)CCN(C(C)=O)CC3)cc2COC2Cc3ccccc3C2)cc(OC)c1C` [Compound 133], the 50% inhibitory concentration (IC50) was 82.9 nM under setting [1] and less than 100 nM under setting [2].

In the case of `COc1cc(OC2CC2)c(F)c(-c2ccc(NC3(C(=O)O)CCOCC3)cc2COC2CCCC2)c1` [Compound 249, 4-((2-((cyclopentyloxy)methyl)-3′-cyclopropoxy-2′-fluoro-5′-methoxy-[1,1′-biphenyl]-4-yl)amino)tetrahydro-2H-pyran-4-carboxylic acid], the concentration for half-maximal inhibition (IC50) under setting [1] was 1.13 nM and the IC50 under setting [2] is less than 100 nM.

As for `CCOc1cncc(-c2c(C)cc(NC3(C(=O)O)CCOCC3)cc2COC2CC2)c1C(F)F` [Compound 410], the concentration for half-maximal inhibition (IC50) under setting [1] is 179 nM and the IC50 under setting [2] fell in the range of 100 to 1000 nM.

Regarding `COCc1cccc(-c2ccc(NC3(C(=O)O)CCOCC3)cc2COC2CC2)c1C(F)F` [Compound 311], the IC50 was 148 nM under setting [1] and 100 to 1000 nM under setting [2].

Take `COc1cc(-c2ccc(NC3(C(=O)O)CCOCC3)cc2COC2CCCC2)cc(OC)c1C` [Compound 134, 4-({2-[(cyclopentyloxy)methyl]-3′,5′-dimethoxy-4′-methyl-[1,1′-biphenyl]-4-yl}amino)-oxane-4-carboxylic acid]: the half-inhibitory concentration (IC50) reads like this: under setting [1], 90.6 nM; under setting [2], less than 100 nM.

On to `COc1cc(-c2ccc(NC3(C(=O)O)CCC(F)(F)CC3)cc2COC2CC2)cc(OC)c1C` [Compound 348], for which the IC50 is, setting by setting: under setting [1], 69.5 nM; under setting [2], less than 100 nM.

`COc1cc(-c2ccc(NC3(C(=O)O)CCOCC3)cc2COC2CCCC2)ccc1C` [Compound 145]: the half-maximal inhibitory concentration (IC50) runs as follows: under setting [1], 486 nM; under setting [2], 100 to 1000 nM.

For the molecule `CCOc1cc(OC)cc(-c2ccc(NC3(C(=O)O)CCCCC3)cc2COC2CC2)c1F` [Compound 357], the half-maximal inhibitory concentration (IC50) was 30.3 nM under setting [1] and less than 100 nM under setting [2].

Regarding `CCCCOCc1cc(NC2(C(=O)O)CCOCC2)ccc1-c1cc(OC)c(C)c(OC)c1C` [Compound 401], the IC50 is 5.71 nM under setting [1] and less than 100 nM under setting [2].

As to `COc1cc(-c2ccc(C3(C(=O)O)CCOCC3)cc2COC2CCCC2)cc(OC)c1C` [Compound 234], the 50% inhibitory concentration (IC50) is 5190 nM under setting [1] and greater than 1000 nM under setting [2].

For `CCOc1cncc(-c2ccc(NC3(C(=O)O)CCOCC3)cc2COC2CC2)c1C` [Compound 407], the IC50 is 96.5 nM under setting [1] and less than 100 nM under setting [2].

In the case of `COc1cc(-c2ccc(NC3(C(=O)O)CCOCC3)cc2COC2(C)CCCC2)c(C)c(OC)c1C` [Compound 212], the IC50 runs as follows: under setting [1], 11.2 nM; under setting [2], less than 100 nM.

As to `COC(=O)N1CCC(Nc2cc(C)c(-c3cc(C#N)cc(OC)c3)c(COC3CCCC3)c2)(C(=O)O)CC1` [Compound 161], the IC50 under setting [1] was 976 nM and the concentration for half-maximal inhibition (IC50) under setting [2] lay within 100 to 1000 nM.

Take `COc1cc(-c2ccc(CC3(C(=O)O)CCOCC3)cc2COC2CCCC2)c(Cl)c(OC)c1C` [Compound 236]: the IC50 is 4710 nM under setting [1] and greater than 1000 nM under setting [2].

`COCC1CC(Nc2ccc(-c3cc(OC)c(C)c(OC)c3)c(COC3Cc4ccccc4C3)c2)(C(=O)O)C1` (centres unmarked) [Compound 143]: the half-inhibitory concentration (IC50) reads like this: under setting [1], 53.8 nM; under setting [2], less than 100 nM.

In the case of `CCOc1cc(OC)cc(-c2ccc(NC3(C(=O)O)CCOCC3)cc2COC2CCCC2)c1` [Compound 315], the IC50 by setting is: under setting [1], 24 nM; under setting [2], less than 100 nM.

With `COc1cc(OC)c(Cl)c(-c2c(F)cc(NC3(C(=O)O)CCOCC3)cc2COC2CCCC2)c1` [Compound 174], the half-inhibitory concentration (IC50) under setting [1] turned out to be 29.3 nM and the IC50 under setting [2] is less than 100 nM.

Consider `CCOc1c(C)ncc(-c2ccc(NC3(C(=O)O)CCOCC3)cc2COC2CC2)c1C` [Compound 408], for which the IC50 under setting [1] was 152 nM and the half-maximal inhibitory concentration (IC50) under setting [2] was 100 to 1000 nM.

Consider `COC(=O)N1CCC(Nc2ccc(-c3cc(OC)cc(OC)c3)c(COC3CCCC3)c2)(C(=O)O)CC1` [Compound 157], for which the 50% inhibitory concentration (IC50) was 112 nM under setting [1] and 100 to 1000 nM under setting [2].

In the case of `O=C(O)C1(Nc2ccc(-c3cccc(OC4CC4)c3C(F)F)c(COC3CC3)c2)CCOCC1` [Compound 322], the half-inhibitory concentration (IC50) reads like this: under setting [1], 5.9 nM; under setting [2], less than 100 nM.

For `COc1cc(-c2c(Cl)cc(NC3(C(=O)O)CCOCC3)cc2COC2CCCC2)cc(OC)c1C` [Compound 184], the IC50 under setting [1] was 33.2 nM and the 50% inhibitory concentration (IC50) under setting [2] was less than 100 nM.

Regarding `COc1cc(-c2ccc(NC3(C(=O)O)CCOCC3)cc2COC2COc3ccccc32)cc(OC)c1C` (single isomer, unassigned) [Compound 216], the IC50 is, setting by setting: under setting [1], 18.6 nM; under setting [2], less than 100 nM.

For `CCOc1c(C)c(OC)cc(-c2ccc(NC3(C(=O)O)CC3)cc2COC2CC2)c1F` [Compound 361], the 50% inhibitory concentration (IC50) is, setting by setting: under setting [1], 75.6 nM; under setting [2], less than 100 nM.

As for `COc1cc(-c2ccc(NC3(C(=O)O)CCC3)cc2COC2Cc3ccccc3C2)cc(OC)c1C` [Compound 110, 1-((2-(((2,3-dihydro-1H-inden-2-yl)oxy)methyl)-3′,5′-dimethoxy-4′-methyl-[1,1′-biphenyl]-4-yl)amino)cyclobutane-1-carboxylic acid], the half-inhibitory concentration (IC50) runs as follows: under setting [1], 152 nM; under setting [2], 100 to 1000 nM.

Regarding `COc1cc(-c2ccc(NC3(C(=O)O)CCOCC3)cc2COC2CC2)c(C(F)F)c(OC)n1` [Compound 314], the IC50 under setting [1] came to 37 nM and the IC50 under setting [2] was less than 100 nM.

Regarding `COc1c(C(C)OC)ccc(-c2ccc(NC3(C(=O)O)CCOCC3)cc2COC2CCCC2)c1C` (single isomer, unassigned) [Compound 241], the IC50 reads like this: under setting [1], 87 nM; under setting [2], 100 to 1000 nM.

Take `COc1cc(-c2ccc(OC3(C(=O)O)CCOCC3)cc2COC2CCCC2)c(Cl)c(OC)c1C` [Compound 192, 4-((2′-chloro-2-((cyclopentyloxy)methyl)-3′,5′-dimethoxy-4′-methyl-[1,1′-biphenyl]-4-yl)oxy)tetrahydro-2H-pyran-4-carboxylic acid]: the half-inhibitory concentration (IC50) by setting is: under setting [1], 15.1 nM; under setting [2], less than 100 nM.

For the molecule `COc1cc2c(c(-c3ccc(NC4(C(=O)O)CCOCC4)cc3COC3CCCC3)c1)CCO2` [Compound 198], the IC50 is, setting by setting: under setting [1], 232 nM; under setting [2], 100 to 1000 nM.

With `O=C(O)C1(Nc2ccc(-c3cccc(OC4CC4)c3F)c(COC3CC3)c2)CCOCC1` [Compound 289], the IC50 under setting [1] came to 51 nM and the half-inhibitory concentration (IC50) under setting [2] is less than 100 nM.

Take `CCOc1cccc(-c2ccc(NC3(C(=O)O)CC3)cc2COC2CC2)c1C` [Compound 360]: the IC50 under setting [1] was found to be 75.5 nM and the IC50 under setting [2] was less than 100 nM.

For `CCOc1cc(OC)cc(-c2ccc(NC3(C(=O)O)CC(F)(F)C3)cc2COC2CC2)c1F` [Compound 367], the 50% inhibitory concentration (IC50) is, setting by setting: under setting [1], 33.2 nM; under setting [2], less than 100 nM.

Turning to `Cc1ccc(-c2ccc(NC3(C(=O)O)CCOCC3)cc2COC2CC2)c(F)c1OC1CC1` [Compound 392], the concentration for half-maximal inhibition (IC50) under setting [1] worked out at 9.44 nM and the IC50 under setting [2] was less than 100 nM.

On to `CCNc1cccc(-c2ccc(NC3(C(=O)O)CCOCC3)cc2COC2CCCC2)c1F` [Compound 278, 4-((2-((cyclopentyloxy)methyl)-3′-(ethylamino)-2′-fluoro-[1,1′-biphenyl]-4-yl)amino)tetrahydro-2H-pyran-4-carboxylic acid], for which the half-maximal inhibitory concentration (IC50) under setting [1] was 36.6 nM and the concentration for half-maximal inhibition (IC50) under setting [2] is less than 100 nM.

The values above are taken from US11884627B2, “Compounds and compositions for treating conditions associated with LPA receptor activity” (Lhotse Bio, Inc., priority 2022, dated 2024).
